Test results taken from patent US20060052600A1, “Amino-functional chalcones” (priority 2002, published 2006).
≈ marks a conversion by molar mass, not a printed value. Read-outs that look alike come from different tables or passages of the source.

Legend:
[1] = system: DHODH (dihydroorotate dehydrogenase); assay: DHODH assay; format: biochemical; conditions: test concentration not given
[2] = system: Staphylococcus aureus ATCC29213; assay: MIC determination in broth microdilution assay
[3] = system: Staphylococcus aureus ATCC33591 (resistant to methicillin); assay: MIC determination in broth microdilution assay
[4] = system: Staphylococcus intermedius #2357 (clinical isolate); assay: MIC determination in broth microdilution assay
[5] = system: Enterococcus faecalis ATCC29212; assay: MIC determination in broth microdilution assay
[6] = system: Enterococcus faecium #17501 (vancomycin-resistant clinical isolate); assay: MIC determination in broth microdilution assay
[7] = system: Streptococcus pneumoniae #998 (clinical isolate); assay: MIC determination in broth microdilution assay
[8] = system: Eschericia coli ATCC25922; assay: MIC determination in broth microdilution assay
Eschericia coli ESS = assay: MIC determination in broth microdilution assay
S. aureus ATCC29213 = assay: Killing curve determination (time-kill curve); format: cell-based, Staphylococcus aureus; conditions: for bactericidal or bacteriostatic action (time-kill curve): CFU per ml at concentrations above the MIC; for MIC: S. aureus ATCC29213
[9] = system: Plasmodium falciparum 3D7; assay: Plasmodium falciparum assay; format: cell-based
[10] = Determination of metabolic stability (liver microsomes); format: in vitro ADME, rat; conditions: for Metabolic turn-over (rat) in vitro: 20 μM, 15 min, 37° C.
Procedure: Samples were incubated for 15 min at 37° C. and the reactions were terminated by addition of equal volumes of acetonitrile. Blank incubations were performed at the same concentration but without addition of microsomes. Both blank and microsome-containing samples were made in […] of three. […] The fraction of compound metabolised during the 15 min of incubation was determined by comparison of blank and microsome-containing samples using a Waters Alliance 2690 separation module and Waters 996 PDA-detector (Waters. […] This was followed by a 5 minutes linear gradient to initial conditions, which were maintained for 5 min. The flow rate was 0.20 ml/min and injection volume 10 μl.

[11] = Determination of solubility; format: physicochemical
Procedure: Solubility of the compounds was determined by preparing a saturated solution of compound in 0.3 M phosphate buffer (pH 7.4±0.3) in a brown glass tube. The suspensions were rotated slowly for 24 hours. Aliquots were centrifuged for 10 minutes at 14.000 rpm and supernatants were diluted in 40% (v/v) acetonitrile in water prior to HPLC analysis. Concentrations of analytes were quantified against a standard curve and used as term of solubility.
The HPLC-UV method used for the assessment of solubility is the same as used in the in vitro metabolism assay.

Pharmacokinetic studies = format: in vivo, mice
Text: Samples of serum were taken at defined timepoints.
The supernatant was used for the analysis.

L. major promastigotes = assay: Leishmania promastigote assay; conditions: read-out: IC50, effect on L. major
[12] = system: panel of non-fastidious bacteria (Gram-positive pathogens and Eschericia coli); assay: Activity against non-fastidious bacteria (panel, results in words)
[13] = system: panel of anaerobic bacteria (Bacteroides fragilis, Clostridium perfringens, Clostridium difficele); format: cell-based; conditions: single concentration 100 μM
[14] = system: Plasmodium falciparum DD2 (Cq-res); assay: Plasmodium falciparum assay, resistant strain; format: cell-based; conditions: DD2, read-out: Plasmodium falciparum IC50, DD2 (Cq-res)
[15] = system: Plasmodium falciparum 7G8(Cq-res); assay: Plasmodium falciparum assay, resistant strain; format: cell-based; conditions: 7G8, read-out: Plasmodium falciparum IC50, 7G8(Cq-res)
[16] = system: Plasmodium falciparum K1(Cq-res); assay: Plasmodium falciparum assay, resistant strain; format: cell-based; conditions: K1, read-out: Plasmodium falciparum IC50, K1(Cq-res)
Plasmodium berghei K173 [17] = assay: Multiple intra venous administration in Plasmodium berghei K173 infected NMRI female mice; format: in vivo; conditions: FIG. 7
Procedure: The doses stated were administered intra venously as solutions in a suitable vehicle.

Plasmodium berghei K173 [18] = assay: Multiple oral administrations in Plasmodium berghei K173 infected NMRI female mice; format: in vivo; conditions: FIG. 8
[19] = Table 2, read-out: IC50, activity against Plasmodium falciparum 3D7

CN(C)CCCNCc1cccc(C(=O)/C=C/c2ccc(Cl)cc2Cl)c1 [A022, (E)-3-(2,4-Dichloro-phenyl)-1-{3-[(3-dimethylamino-propylamino)-methyl]-phenyl}-propenone]
Inhibition of DHODH [1]: 28% | MIC, A: Staphylococcus aureus ATCC29213 [2]: 37.5 µM (≈ 14.7 µg/mL) | MIC, B: Staphylococcus aureus ATCC33591 [3]: 37.5 µM (≈ 14.7 µg/mL) | MIC, C: Staphylococcus intermedius #2357 [4]: 37.5 µM (≈ 14.7 µg/mL) | MIC, D: Enterococcus faecalis ATCC29212 [5]: 18.8 µM (≈ 7.36 µg/mL) | MIC, E: Enterococcus faecium #17501 [6]: 18.8 µM (≈ 7.36 µg/mL) | MIC, F: Streptococcus pneumoniae #998 [7]: 18.8 µM (≈ 7.36 µg/mL) | MIC, G: Eschericia coli ATCC25922 [8]: 18.8 µM (≈ 7.36 µg/mL) | MIC, H: Eschericia coli ESS (Eschericia coli ESS): 18.8 µM (≈ 7.36 µg/mL)

CCCCN(CCCC)c1ccc(/C=C/C(=O)c2ccccc2CN2CCN(C)CC2)cc1 [A031, (E)-3-(4-Dibutylamino-phenyl)-1-[2-(4-methyl-piperazin-1-ylmethyl)-phenyl]-propenone]
bactericidal or bacteriostatic action (time-kill curve) (S. aureus ATCC29213): bactericidal | MIC (S. aureus ATCC29213): 9.4 µM (≈ 4.21 µg/mL) | activity against the ESS strain of E. coli (Eschericia coli ESS): considerable activity

C=CC(C)(C)c1cc(/C=C/C(=O)c2ccc(O)cc2)c(OC)cc1O [LicA, Licochalcone A, reference compound]
IC50 [9, 19]: 6400 nM | Inhibition of DHODH [1]: 25% | metabolic turn-over in vitro [10]: 100% | Metabolic turn-over (rat) in vitro [10]: 100% | aqueous solubility ([11]; pH 7.4): approximately 0.01 mg/ml | t½ in vivo (Pharmacokinetic studies; in vivo, species not given): 10 min | IC50 (L. major promastigotes): 4600 nM | MIC, A: Staphylococcus aureus ATCC29213 [2]: 37.5 µM (≈ 12.7 µg/mL) | MIC, B: Staphylococcus aureus ATCC33591 [3]: 37.5 µM (≈ 12.7 µg/mL) | MIC, C: Staphylococcus intermedius #2357 [4]: 37.5 µM (≈ 12.7 µg/mL) | MIC, D: Enterococcus faecalis ATCC29212 [5]: 37.5 µM (≈ 12.7 µg/mL) | MIC, E: Enterococcus faecium #17501 [6]: 37.5 µM (≈ 12.7 µg/mL) | MIC, F: Streptococcus pneumoniae #998 [7]: 75.0 µM (≈ 25.4 µg/mL) | MIC, H: Eschericia coli ESS (Eschericia coli ESS): 300.0 µM (≈ 102 µg/mL) | activity against Gram-negative bacterium Eschericia coli [12]: only modest or no activity | activity against common pathogenic Gram-positive non-fastidious bacteria ([12]; also against antibiotic resistant bacteria): moderate bactericidal activity

C=CC(C)(C)c1ccc(OC)c(/C=C/C(=O)c2ccccc2CN(C)C)c1 [A034, (E)-3-[5-(1,1-Dimethyl-allyl)-2-methoxy-phenyl]-1-(2-dimethylaminomethyl-phenyl)-propenone]
activity against anaerobic bacteria [13]: activity against all microorganisms within the test panel | IC50 (L. major promastigotes): 900 nM

COc1ccc(C(=O)/C=C/c2ccccc2)cc1 [4′MC, 4′methoxy chalcone, reference compound]
IC50 ([9]; Plasmodium falciparum, 3D7, Table 2, read-out: IC50, activity against Plasmodium falciparum 3D7): 40000 nM | Inhibition of DHODH [1]: 7% | solubility at 24 h ([11]; 0.3 M phosphate buffer, pH 7.4, aqueous buffer, thermodynamic from solid): < 50 µg/mL | IC50 (L. major promastigotes; Leishmania major): 5600 nM | antibacterial effect [12]: no antibacterial effect at all

CN(C)Cc1cccc(/C=C/C(=O)c2ccccc2CN(C)C)c1 [A066, (E)-3-(3-Dimethylaminomethyl-phenyl)-1-(2-dimethylaminomethyl-phenyl)-propenone]
IC50 [9, 19]: 900 nM | Solubility in aqueous buffer at pH 7.4 ([11]; 0.3 M phosphate buffer, 24 hours): 7.4 mg/ml

CCN(CC)Cc1cccc(C(=O)/C=C/c2ccc(Cl)cc2Cl)c1 [A063, (E)-3-(2,4-Dichloro-phenyl)-1-(3-diethylaminomethyl-phenyl)-propenone]
activity against anaerobic bacteria [13]: activity against all microorganisms within the test panel | IC50 (L. major promastigotes): 900 nM

COc1ccc(-c2ccccc2)cc1/C=C/C(=O)c1cccc(CN(C)C)c1 [A100, (E)-1-(3-Dimethylaminomethyl-phenyl)-3-(4-methoxy-biphenyl-3-yl)-propenone]
IC50 (L. major promastigotes): 200 nM

CCN(CC)CCCC(C)Nc1ccnc2cc(Cl)ccc12 (stereo not shown) [Chloroquine]
IC50 ([9]; Plasmodium falciparum, 3D7, read-out: Plasmodium falciparum IC50, 3D7(Cq-sen)): 130 nM | IC50 [14]: 1000 nM | IC50 [15]: 1090 nM | IC50 [16]: > 1560 nM

CN(C)CCN(C)Cc1ccccc1C(=O)/C=C/c1ccc(Cl)cc1Cl [A038, (E)-3-(2,4-Dichloro-phenyl)-1-(2-{[(2-dimethylamino-ethyl)-methyl-amino]-methyl}-phenyl)-propenone]
activity against anaerobic bacteria [13]: activity against all microorganisms within the test panel | Inhibition of DHODH [1]: 22% | IC50 (L. major promastigotes): 800 nM

CCCCN(CCCC)c1ccc(/C=C/C(=O)c2cccc(CN(C)C)c2)cc1 [A019, (E)-3-(4-Dibutylamino-phenyl)-1-(3-dimethylaminomethyl-phenyl)-propenone]
bactericidal or bacteriostatic action (time-kill curve) (S. aureus ATCC29213): bactericidal | MIC (S. aureus ATCC29213): 9.4 µM (≈ 3.69 µg/mL) | dependence of the bactericidal action (S. aureus ATCC29213; time-kill curve): primarily dependent on incubation time | Metabolic turn-over (rat) in vitro [10]: 5% | MIC, A: Staphylococcus aureus ATCC29213 [2]: 9.4 µM (≈ 3.69 µg/mL) | MIC, B: Staphylococcus aureus ATCC33591 [3]: 9.4 µM (≈ 3.69 µg/mL) | MIC, C: Staphylococcus intermedius #2357 [4]: 9.4 µM (≈ 3.69 µg/mL) | MIC, D: Enterococcus faecalis ATCC29212 [5]: 9.4 µM (≈ 3.69 µg/mL) | MIC, E: Enterococcus faecium #17501 [6]: 9.4 µM (≈ 3.69 µg/mL) | MIC, F: Streptococcus pneumoniae #998 [7]: 18.8 µM (≈ 7.38 µg/mL) | MIC, H: Eschericia coli ESS (Eschericia coli ESS): 18.8 µM (≈ 7.38 µg/mL) | activity against the ESS strain of E. coli (Eschericia coli ESS): considerable activity | potency against Gram-positive pathogens in comparison with Licochalcone A ([12]; Gram-positive pathogens): increased potency

COc1ccc(-c2ccccc2)cc1/C=C/C(=O)c1ccc(CCN(C)C)cc1 [A117, (E)-1-[4-(2-Dimethylamino-ethyl)-phenyl]-3-(4-methoxy-biphenyl-3-yl)-propenone]
MIC, A: Staphylococcus aureus ATCC29213 [2]: 9.4 µM (≈ 3.62 µg/mL) | MIC, B: Staphylococcus aureus ATCC33591 [3]: 9.4 µM (≈ 3.62 µg/mL) | MIC, C: Staphylococcus intermedius #2357 [4]: 9.4 µM (≈ 3.62 µg/mL) | MIC, D: Enterococcus faecalis ATCC29212 [5]: 37.5 µM (≈ 14.5 µg/mL) | MIC, E: Enterococcus faecium #17501 [6]: 37.5 µM (≈ 14.5 µg/mL) | MIC, F: Streptococcus pneumoniae #998 [7]: 37.5 µM (≈ 14.5 µg/mL) | MIC, G: Eschericia coli ATCC25922 [8]: 150 µM (≈ 57.8 µg/mL) | MIC, H: Eschericia coli ESS (Eschericia coli ESS): 9.4 µM (≈ 3.62 µg/mL)

CN(Cc1ccccc1C(=O)/C=C/c1ccc(Cl)cc1Cl)C(C)(C)C [A035, (E)-1-{2-[(tert-Butyl-methyl-amino)-methyl]-phenyl}-3-(2,4-dichloro-phenyl)-propenone]
IC50 [9, 19]: 900 nM | Inhibition of DHODH [1]: 26%

CN(C)Cc1ccccc1C(=O)/C=C/c1ccc(Cl)cc1Cl [A027, (E)-3-(2,4-Dichloro-phenyl)-1-(2-dimethylaminomethyl-phenyl)-propenone]
parasitaemia, multiple intra venous administrations (Plasmodium berghei K173 [17]): significant decrease in the parasitaemia | parasitaemia, multiple oral administrations (Plasmodium berghei K173 [18]): significant decrease in the parasitaemia

O=C(/C=C/c1ccc(Cl)cc1Cl)c1ccccc1CN1CCNCC1 [A048, (E)-3-(2,4-Dichloro-phenyl)-1-(2-piperazin-1-ylmethyl-phenyl)-propenone]
bioavailability (Pharmacokinetic studies; mice): 34%
